Assay results taken from patent publication US8765773B2, “Substituted hydroxamic acids and uses thereof” (Millennium Pharmaceuticals, Inc., priority 2010, dated 2014).

These compounds were tested against T1, purified human HDAC6 (Homo sapiens, UniProt Q9UBN7) (assay: HDAC6 Enzyme Assay). Conditions: compound concentration 0.37 μM, read-out: Percent Inhibition.
T1 construct: purchased BPS Bioscience 5006
T1 sequence (Q9UBN7 1-1215): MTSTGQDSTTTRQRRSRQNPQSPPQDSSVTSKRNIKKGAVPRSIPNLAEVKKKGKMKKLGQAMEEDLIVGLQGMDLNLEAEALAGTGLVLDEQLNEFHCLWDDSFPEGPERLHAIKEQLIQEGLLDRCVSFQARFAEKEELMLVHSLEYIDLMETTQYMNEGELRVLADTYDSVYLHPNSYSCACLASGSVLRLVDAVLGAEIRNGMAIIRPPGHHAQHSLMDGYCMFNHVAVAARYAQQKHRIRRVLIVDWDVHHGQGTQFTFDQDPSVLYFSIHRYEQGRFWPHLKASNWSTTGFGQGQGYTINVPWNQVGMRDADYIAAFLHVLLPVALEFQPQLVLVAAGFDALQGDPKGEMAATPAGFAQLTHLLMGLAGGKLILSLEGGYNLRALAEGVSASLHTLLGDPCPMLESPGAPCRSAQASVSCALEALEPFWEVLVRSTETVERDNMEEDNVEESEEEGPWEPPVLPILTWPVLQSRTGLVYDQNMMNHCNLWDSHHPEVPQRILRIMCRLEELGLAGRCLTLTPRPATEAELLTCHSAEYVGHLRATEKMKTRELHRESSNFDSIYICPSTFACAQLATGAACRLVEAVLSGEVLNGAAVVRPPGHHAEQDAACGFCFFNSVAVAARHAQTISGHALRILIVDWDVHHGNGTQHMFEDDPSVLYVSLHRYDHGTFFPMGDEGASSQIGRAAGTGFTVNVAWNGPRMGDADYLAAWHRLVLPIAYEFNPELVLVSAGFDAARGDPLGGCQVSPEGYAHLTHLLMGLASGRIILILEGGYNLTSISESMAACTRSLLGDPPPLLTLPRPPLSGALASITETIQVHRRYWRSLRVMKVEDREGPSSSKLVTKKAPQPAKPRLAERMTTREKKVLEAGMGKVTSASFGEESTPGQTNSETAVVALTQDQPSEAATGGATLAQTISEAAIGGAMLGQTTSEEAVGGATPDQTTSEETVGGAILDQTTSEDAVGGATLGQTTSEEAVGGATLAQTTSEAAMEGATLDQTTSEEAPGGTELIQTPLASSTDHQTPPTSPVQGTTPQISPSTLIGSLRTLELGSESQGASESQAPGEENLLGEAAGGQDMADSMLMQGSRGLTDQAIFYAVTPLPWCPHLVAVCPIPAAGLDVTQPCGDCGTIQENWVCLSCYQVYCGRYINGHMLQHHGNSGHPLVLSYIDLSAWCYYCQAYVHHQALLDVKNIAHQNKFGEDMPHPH
Format: biochemical
In short: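 Readout is AMC fluorescence (Ex 340 nm, Em 460 nm) after trypsin cleavage of the deacetylated Ac-Arg-Gly-Lys(Ac)-AMC product. Reaction: purified human HDAC6, compound or vehicle, 1 hour, 30° C, quenched by trichostatin A. Single-concentration percent inhibition or IC50 calculated versus DMSO-treated samples.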

First: CS(=O)(=O)Nc1cccc(Cn2cnc3ccc(C(=O)NO)cc3c2=O)c1 [Compound I-200, N-hydroxy-3-{3-[(methylsulfonyl)amino]benzyl}-4-oxo-3,4-dihydroquinazoline-6-carboxamide]
Second: CS(=O)(=O)c1cccc(CCn2cnc3ccc(C(=O)NO)cc3c2=O)c1 [Compound I-216, N-hydroxy-3-{2-[3-(methylsulfonyl)phenyl]ethyl}-4-oxo-3,4-dihydroquinazoline-6-carboxamide]
The inhibition at 0.37 µM of the first is higher: 93.3% for the first, 85.7% for the second.

Going from `CC(C)(C)OC(=O)NCCCn1ccc2ccc(C(=O)NO)cc2c1=O` [Compound I-245, tert-butyl {3-[7-[(hydroxyamino)carbonyl]-1-oxoisoquinolin-2(1H)-yl]propyl}carbamate] to `CC(=O)Nc1cccc(-c2cccc(Cn3cnc4ccc(C(=O)NO)cc4c3=O)c2)c1` [Compound I-60, 3-{[3′-(acetylamino)biphenyl-3-yl]methyl}-N-hydroxy-4-oxo-3,4-dihydroquinazoline-6-carboxamide], the inhibition at 0.37 µM rises from 94.5% to 98.4%.

For `O=C(NO)c1ccc2ncn(Cc3cccc(-c4ccc(C(F)(F)F)cc4)c3)c(=O)c2c1` [Compound I-69, N-hydroxy-4-oxo-3-{[4′-(trifluoromethyl)biphenyl-3-yl]methyl}-3,4-dihydroquinazoline-6-carboxamide], the inhibition at 0.37 µM was 82%.

Same assay, conditions: compound concentration 0.412 μM, read-out: Percent Inhibition

Going from `COc1cc(OC)cc(OCCn2ccc3ccc(C(=O)NO)cc3c2=O)c1` [Compound I-101, 2-[2-(3,5-dimethoxyphenoxy)ethyl]-N-hydroxy-1-oxo-1,2-dihydroisoquinoline-7-carboxamide] to `COc1ccc2cc(OCCCn3ccc4ccc(C(=O)NO)cc4c3=O)ccc2c1` [Compound I-151, N-hydroxy-2-{3-[(6-methoxy-2-naphthyl)oxy]propyl}-1-oxo-1,2-dihydroisoquinoline-7-carboxamide], the inhibition at 0.412 µM rises from 95.7% to 96.2%.

Going from `Cc1ccccc1OCc1nc2cc(C(=O)NO)ccc2c(=O)[nH]1` [Compound I-29, N-hydroxy-2-[(2-methylphenoxy)methyl]-4-oxo-3,4-dihydroquinazoline-7-carboxamide] to `O=C(NO)c1ccc2ccn(CCCOc3ccccc3-c3csnn3)c(=O)c2c1` [Compound I-160, N-hydroxy-1-oxo-2-{3-[2-(1,2,3-thiadiazol-4-yl)phenoxy]propyl}-1,2-dihydroisoquinoline-7-carboxamide], the inhibition at 0.412 µM rises from 78.9% to 87.4%.

Going from `O=C(NO)c1ccc2ncn(Cc3ccc(C(F)(F)F)cc3)c(=O)c2c1` [Compound I-30, N-hydroxy-4-oxo-3-[4-(trifluoromethyl)benzyl]-3,4-dihydroquinazoline-6-carboxamide] to `CC(C)(C)c1ccc(Cn2ccc3ccc(C(=O)NO)cc3c2=O)cc1` [Compound I-267, 2-(4-tert-butylbenzyl)-N-hydroxy-1-oxo-1,2-dihydroisoquinoline-7-carboxamide], the inhibition at 0.412 µM rises from 93.6% to 94.8%.

First: O=C(NO)c1ccc2ccn(CCCOc3cccc(-c4csnn4)c3)c(=O)c2c1 [Compound I-72, N-hydroxy-1-oxo-2-{3-[3-(1,2,3-thiadiazol-4-yl)phenoxy]propyl}-1,2-dihydroisoquinoline-7-carboxamide]
Second: COc1ccc(NCCCn2ccc3ccc(C(=O)NO)cc3c2=O)cc1 [Compound I-34, N-hydroxy-2-{3-[(4-methoxyphenyl)amino]propyl}-1-oxo-1,2-dihydroisoquinoline-7-carboxamide]
The inhibition at 0.412 µM of the first is lower: 94.1% for the first, 94.3% for the second.

First: O=C(NO)c1ccc2ccn(CCOc3cccc4c3CCC4)c(=O)c2c1 [Compound I-196, 2-[2-(2,3-dihydro-1H-inden-4-yloxy)ethyl]-N-hydroxy-1-oxo-1,2-dihydroisoquinoline-7-carboxamide]
Second: O=C(NO)c1ccc2c(=O)n(-c3ccc(Cl)cc3)c(=O)[nH]c2c1 [Compound I-280, 3-(4-chlorophenyl)-N-hydroxy-2,4-dioxo-1,2,3,4-tetrahydroquinazoline-7-carboxamide]
The inhibition at 0.412 µM of the first is higher: 95.2% for the first, 20.9% for the second.
